Reference: patent US9040509B2, “Method of treating human skin and a skin care composition for use in such a method” (Pantarhei Bioscience B.V., priority 2002, dated 2015)
Like-named read-outs stand apart in the source and are kept apart here.

Columns and labels:
human ERα = human ERα (Homo sapiens (Human), UniProt P03372); assay: Competitive steroid binding assay, recombinant human ERα, [3H]E2 as labeled ligand; conditions: Cheng and Prusoff from measured IC50
human ERβ = human ERβ (Homo sapiens (Human), UniProt Q92731); assay: Competitive steroid binding assay, recombinant human ERβ, [3H]E2 as labeled ligand; conditions: Cheng and Prusoff from measured IC50
Chain of human ERβ (Q92731 whole entry): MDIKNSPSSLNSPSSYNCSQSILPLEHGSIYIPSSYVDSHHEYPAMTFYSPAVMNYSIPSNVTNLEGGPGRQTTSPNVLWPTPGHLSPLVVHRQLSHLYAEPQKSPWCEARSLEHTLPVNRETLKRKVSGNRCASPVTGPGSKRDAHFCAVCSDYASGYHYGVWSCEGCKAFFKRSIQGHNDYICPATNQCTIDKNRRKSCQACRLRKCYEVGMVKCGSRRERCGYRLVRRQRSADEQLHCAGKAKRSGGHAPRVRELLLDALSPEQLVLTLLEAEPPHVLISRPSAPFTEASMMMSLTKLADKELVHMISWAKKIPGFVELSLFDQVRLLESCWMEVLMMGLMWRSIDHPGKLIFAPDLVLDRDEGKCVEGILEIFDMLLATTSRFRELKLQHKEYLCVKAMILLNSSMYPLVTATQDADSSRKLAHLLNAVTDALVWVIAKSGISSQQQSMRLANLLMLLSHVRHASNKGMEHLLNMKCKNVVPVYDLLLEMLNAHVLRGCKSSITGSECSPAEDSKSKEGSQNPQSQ

[1] = Elimination half-life after single subcutaneous administration in rats; type: in vivo; conditions: female, Sprague Dawley, rat; single sc dose 0.05, 0.5 or 5 mg/kg in arachidis oil; plasma
Method: To determine the in vivo stability of estetrol (E4) its elimination half-life in female Sprague Dawley rats was determined after a single subcutaneous administration (sc) at several dose levels.
Female Sprague Dawley rats were equipped with a permanent silatic heart catheter, as described by Kuipers et al. (1985, Gastroenterology, 88, 403-411). Rats were allowed to recover from surgery for 5 days and were than administered 0.05, 0.5, or 5 mg/kg E4 in 0.5 ml arachidis oil. E4 was injected in the neck area using a 1 ml syringe and 20 g needle. Blood samples were subsequently collected via the heart catheter in heparinized tubes at 0.5, 1, 2, 4, 8 and 24 hours. Erythrocytes were removed by centrifugation at 5000×g for 10 minutes at 4° C. and blood plasma was stored at −20° C. […] With each sample batch, a calibration curve with 6 calibrators was recorded. The calibration curve was calculated using linear regression (correlation coefficient>0.98), which permitted quantitation of plasma concentrations. […]
Plasma E4 concentration data were analysed with “WinNonLin, edition 3.1” and involved pharmacokinetic parameters for Cmax, AUC0-24 and half-life.

uterine vasodilation = conditions: intravenously administered; cited from earlier work
[2] = system: human breast cancer cells (MCF-7); conditions: MCF-7, long term tissue culture; cited from earlier work
immature rat uterus = conditions: subcutaneously administered, Holinka et al., cited from earlier work
uterus = conditions: continuous administration from a subcutaneous depot; Martucci et al., 1977; cited from earlier work
[3] = system: estrogen receptor in the human endometrium; conditions: Tseng et al., cited from earlier work
[4] = system: rat uterine cytosol estrogen receptor; conditions: cited from earlier work
[5] = system: rat uterine nuclear estrogen receptor; conditions: cited from earlier work
[6] = intravenous, two adult women, cited from earlier work

Chain of human ERα (P03372 whole entry): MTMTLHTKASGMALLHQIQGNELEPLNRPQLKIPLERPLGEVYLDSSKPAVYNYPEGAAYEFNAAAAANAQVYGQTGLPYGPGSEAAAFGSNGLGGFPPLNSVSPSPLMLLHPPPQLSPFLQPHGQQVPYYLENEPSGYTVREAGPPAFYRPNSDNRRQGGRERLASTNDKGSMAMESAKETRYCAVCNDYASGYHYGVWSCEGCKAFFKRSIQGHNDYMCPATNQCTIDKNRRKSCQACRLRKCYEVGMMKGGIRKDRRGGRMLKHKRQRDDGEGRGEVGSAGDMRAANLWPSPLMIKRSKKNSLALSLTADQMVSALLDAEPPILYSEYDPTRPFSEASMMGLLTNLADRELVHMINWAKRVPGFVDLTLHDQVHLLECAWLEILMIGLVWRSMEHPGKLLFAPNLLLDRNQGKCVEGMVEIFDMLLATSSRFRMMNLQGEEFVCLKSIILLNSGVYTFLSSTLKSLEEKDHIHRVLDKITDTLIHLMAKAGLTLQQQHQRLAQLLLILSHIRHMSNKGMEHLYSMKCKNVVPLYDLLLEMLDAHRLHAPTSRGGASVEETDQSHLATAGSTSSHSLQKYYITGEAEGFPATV

With `C[C@]12CC[C@@H]3c4ccc(O)cc4CC[C@H]3[C@@H]1[C@@H](O)[C@@H](O)[C@@H]2O` [E4, 1,3,5 (10)-estratrien-3,15α,16α,17β-tetrol] as the compound, how does the Ki (human ERα) read?
The Ki was 0.0049 µM.

What about the Ki (human ERβ) of the same compound?
The Ki was 0.019 µM.

What about the half-life [1] of the same compound?
The half-life was 2 to 3 h.

What about the “potency in uterine vasodilation, times less potent than estriol and 17β-estradiol” value (uterine vasodilation) of the same compound?
The value was 15 to 30 times.

And the “agonistic potency in in vitro cell proliferation relative to 17β-estradiol” value [2]?
Its value is 2%.

What about the uterotrophic activity (immature rat uterus; 1979) of the same compound?
Its uterotrophic activity is “very weak uterotrophic activity”.

What about the uterotrophic activity (immature rat uterus; 1980) of the same compound?
The uterotrophic activity was “very weak uterotrophic activity”.

What about the uterotrophic activity (uterus) of the same compound?
Its uterotrophic activity is “very weak uterotrophic activity”.

What about the “relative binding constant compared to 17β-estradiol (100%)” value [3]; 1976 of the same compound?
Its value is 6.25%.

What about the “relative binding to estrogen receptors, of 17β-estradiol” value [3]; 1978 of the same compound?
The value was 1.5%.

And the “relative binding affinity, of 17β-estradiol (100%)” value [4]?
The value was 0.5%.

And the “relative binding affinity, of 17β-estradiol (100%)” value [5]?
The value was 0.3%.

What about the excretion ([6]; urine) of the same compound?
Its excretion is “rapidly and completely excreted in urine as the glucosiduronate”.

What about the metabolism [6] of the same compound?
Its metabolism is “virtually no metabolism except for conjugation took place”.
